Reference: patent US9796713B2, “Tricyclic compounds as alpha-7 nicotinic acetylcholine receptor ligands” (BRISTOL-MYERS SQUIBB COMPANY, priority 2014, dated 2017)

Target: T1, α-7 nicotinic ACh receptor ion channel (Rattus norvegicus, UniProt Q05941)
T1 construct: expressed in transfected cells
Assay: FLIPR Ca2+-sensitive fluorescence assay of α7 nicotinic acetylcholine receptor channel function (agonist activity) in HEK 293 cells
Format: cell-based
Details: Ca2+ flux, HEK-293 cells expressing the channel
Method: I) α7 Nicotinic Acetycholine Receptor Binding. Membranes were prepared for binding using HEK293 cells stably expressing the rat α7 nicotinic acetycholine receptor (rat α7 nAChR). Cells were homogenized at 4° C. in hypotonic lysis buffer consisting of 10 mM Tris (pH 7.4), 5 mM EDTA and protease inhibitors and centrifuged at 32000×g for 20 minutes. The pellet was washed once in membrane wash buffer consisting of 50 mM Tris (pH 7.4), 1 mM EDTA and protease inhibitors and centrifuged at 32000×g for 20 minutes. This pellet was then resuspended in assay buffer consisting 50 mM KH2PO4 (pH 7.4 at 25° C.), 1 mM EDTA, 0.005% Triton-X 100 and 0.1% (v/v) Sigma Protease Inhibitor Cocktail. Aliquots were then frozen in dry ice/ethanol and kept at −80° C. until the day of the assay. II) A Ca^2+-Sensitive, Fluorescence-Based Assay α-7 for Nicotinic Acetylcholine Receptor Channel Function in Mammalian Cells (“FLIPR”). Summary: Lead compounds are evaluated for agonist activity at α-7, α3β4, α4αβ2, and α1β1δ1ε sub-types of nicotinic ACh receptor ion channels expressed in mammalian HEK 293 cells. Agonist potency and efficacy values are determined from kinetic fluorescence Ca^2+ influx measurements made using a 384 well FLIPR (Fluorescence Image Plate Reader). The utility of fluorescent indicators for measuring changes in intracellular divalent cation concentrations, particularly Ca^2+, for drug discovery endeavors is well documented (Rudiger, R., et al., Nature Reviews, 2003, 4:579-586; Gonzalez J. E., et al., Receptors and Channels, 2002, 8:283-295). In this assay, channel expressing HEK cell lines seeded in 384 well assay plates are loaded with a membrane permeant fluorescent Ca^2+ indicator dye, whose 510 nm green emission signal increases in response to elevation of intracellular Ca^2+ concentration. The basal fluorescence from the cells is monitored in real time, followed by the acute addition of test compounds. If the compound is an agonist at any of the non-selective cation channels, the latter open and allow the movement of extracellular Ca^2+ ions into the cell cytoplasm, where they bind to the Ca^2+ indicator dye, and produce an increase in fluorescence output signal, which is detected by a cooled CCD imaging camera.
Materials and Methods: Reagents: The acetomethoxy (AM) ester of the Ca^2+ indicator dye Fluo-4 was obtained from InVitrogen, (Carlsbad, Calif.). Acetylcholine and all buffer constituents were purchased from Sigma Chemical Company, St. Louis, Mo. G418 and Minimal Essential Medium were purchased from InVitrogen Life Technologies, Carlsbad, Calif. Fetal bovine serum was purchased from (InVitrogen, Carlsbad, Calif.).
Cell Culture: HEK-293 cells were grown in Minimal Essential Medium containing 10% (v/v) fetal bovine serum at 37° C. in a 5% CO2 incubator. HEK-293 cells stably expressing the ion channels were grown in the same medium with the addition of 500 μg/ml G418.
Ca^2+ flux assays of Ca^2+ channels expressed in HEK-293 cells: HEK-293 cells expressing the ion channels of interest were plated in 384 well, black-walled, clear-bottomed, poly-D-lysine coated plates at a density of ˜20,000 cells/well in 20 μl of Minimal Essential Medium containing 10% (v/v) fetal bovine serum and incubated for 2 days at 29° C. in a 5% CO2 incubator. Prior to assay, cells were loaded with the Fluo-4 AM ester. Cell loading was accomplished by removing the culture medium and replacing it with 30 μl/well of the AM ester of the dye (5 μM) mixed with Hanks Balanced Salt Solution (#14175-095) containing 20 mM HEPES, 2.5 mM probenecid, 0.5 mM CaCl2, 1 mM MgCl2 and 10 μM atropine. Dye loading was allowed to proceed for 90 minutes at room temperature at which time the dye loading solution was removed and replaced with 40 μl/well of Hanks buffer. Cells loaded with dye were loaded onto a FLIPR384 (Molecular Devices, Sunnyvale, Calif.). Fluo-4 dye was excited using the 488 nm line of an argon laser. Emission was filtered using a 540+/−30 nm bandpass filter. […]

T1 sequence (Q05941 23-502): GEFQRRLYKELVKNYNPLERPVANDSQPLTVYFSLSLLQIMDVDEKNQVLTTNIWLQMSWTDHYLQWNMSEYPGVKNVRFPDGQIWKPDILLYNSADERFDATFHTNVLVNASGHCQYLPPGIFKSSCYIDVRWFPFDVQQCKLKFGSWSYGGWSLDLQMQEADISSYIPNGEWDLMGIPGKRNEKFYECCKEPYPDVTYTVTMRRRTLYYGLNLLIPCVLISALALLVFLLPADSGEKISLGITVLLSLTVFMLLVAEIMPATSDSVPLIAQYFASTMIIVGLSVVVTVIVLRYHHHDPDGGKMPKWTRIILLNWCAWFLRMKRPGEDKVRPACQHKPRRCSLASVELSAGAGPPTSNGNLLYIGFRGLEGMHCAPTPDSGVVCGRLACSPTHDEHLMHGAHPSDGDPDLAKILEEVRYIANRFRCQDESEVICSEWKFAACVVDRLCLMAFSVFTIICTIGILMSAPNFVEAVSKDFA

SMILES	EC50 (Table 3) [µM]	EC50 (Table 1) [µM]	further results
O=C(c1cc(-c2ccccc2)[nH]n1)N1[C@H]2C[C@@H]3CC[N@](C2)C[C@@H]31 [Example 19, ((2S,3aS,6R,7aR)-hexahydro-2,6-methanopyrrolo[2,3-c]pyridin-1(2H)-yl)(5-phenyl-1H-pyrazol-3-yl)methanone]			EC50 (Table 2): > 100 µM
O=C(c1nccc2ccccc12)N1[C@@H]2C[C@H]3CC[N@@](C2)C[C@H]31 [Example 25, ((2R,3aR,6S,7aS)-hexahydro-2,6-methanopyrrolo[2,3-c]pyridin-1(2H)-yl)(isoquinolin-1-yl)methanone]	45		
O=C(c1n[nH]c2c(Cl)cccc12)N1[C@H]2C[C@@H]3CC[N@](C2)C[C@@H]31 [Example 22, (7-Chloro-1H-indazol-3-yl)((2S,3aS,6R,7aR)-hexahydro-2,6-methanopyrrolo[2,3-c]pyridin-1(2H)-yl)methanone]			EC50 (Table 2): 3.6 µM
O=C(c1cc(C2CC2)[nH]n1)N1[C@@H]2C[C@H]3CC[N@@](C2)C[C@H]31 [Example 27, ((2R,3aR,6S,7aS)-hexahydro-2,6-methanopyrrolo[2,3-c]pyridin-1(2H)-yl)(5-cyclopropyl-1H-pyrazol-3-yl)methanone]	> 100		
O=C(c1cc(C2CC2)[nH]n1)N1[C@H]2C[C@@H]3CC[N@](C2)C[C@@H]31 [Example 20, ((2S,3aS,6R,7aR)-hexahydro-2,6-methanopyrrolo[2,3-c]pyridin-1(2H)-yl)(5-cyclopropyl-1H-pyrazol-3-yl)methanone]			EC50 (Table 2): 26 µM
Cc1ccc2c(C(=O)N3[C@H]4C[C@@H]5CC[N@](C4)C[C@@H]53)n[nH]c2c1 [Example 23, (6-methyl-1H-indazol-3-yl)((2S,3aS,6R,7aR)-hexahydro-2,6-methanopyrrolo[2,3-c]pyridin-1(2H)-yl)methanone]			EC50 (Table 2): 0.039 µM
O=C(c1noc2ccccc12)N1[C@@H]2C[C@H]3CC[N@@](C2)C[C@H]31 [Example 29, benzo[d]isoxazol-3-yl((2R,3aR,6S,7aS)-hexahydro-2,6-methanopyrrolo[2,3-c]pyridin-1(2H)-yl)methanone]	3.1		
O=C(c1n[nH]c2ccccc12)N1[C@H]2C[C@@H]3CC[N@](C2)C[C@@H]31 [Example 18, ((2S,3aS,6R,7aR)-hexahydro-2,6-methanopyrrolo[2,3-c]pyridin-1(2H)-yl)(1H-indazol-3-yl)methanone]			EC50 (Table 2): 0.055 µM
O=C(c1cc(-c2ccccc2)[nH]n1)N1[C@@H]2C[C@H]3CC[N@@](C2)C[C@H]31 [Example 32, ((2R,3aR,6S,7aS)-hexahydro-2,6-methanopyrrolo[2,3-c]pyridin-1(2H)-yl)(5-phenyl-1H-pyrazol-3-yl)methanone]	> 100		
O=C(c1ccc(Cl)cc1)N1C2CC3CCN(C2)CC31 (stereo not drawn) [Example 13, (4-chlorophenyl)(hexahydro-2,6-methanopyrrolo[2,3-c]pyridin-1(2H)-yl)methanone]		> 100	
COc1cccc2[nH]nc(C(=O)N3C4CC5CCN(C4)CC53)c12 (stereo not drawn) [Example 15, (4-methoxy-1H-indazol-3-yl)(hexahydro-2,6-methanopyrrolo[2,3-c]pyridin-1(2H)-yl)methanone]		> 50	
Cn1cc(C(=O)N2C3CC4CCN(C3)CC42)c2ccccc21 (stereo not drawn) [Example 14, (Hexahydro-2,6-methanopyrrolo[2,3-c]pyridin-1(2H)-yl)(1-methyl-1H-indol-3-yl)methanone]		> 100	
O=C(c1nsc2ccccc12)N1C2CC3CCN(C2)CC31 (stereo not drawn) [Example 11, Benzo[d]isothiazol-3-yl(hexahydro-2,6-methanopyrrolo[2,3-c]pyridin-1(2H)-yl)methanone]		7.1	
O=C(c1cc2cccc(Cl)c2s1)N1C2CC3CCN(C2)CC31 (stereo not drawn) [Example 4, (7-chlorobenzo[b]thiophen-2-yl)(hexahydro-2,6-methanopyrrolo[2,3-c]pyridin-1(2H)-yl)methanone]		> 100	
O=C(c1cc2c(Cl)cccc2s1)N1C2CC3CCN(C2)CC31 (stereo not drawn) [Example 12, (4-chlorobenzo[b]thiophen-2-yl)(hexahydro-2,6-methanopyrrolo[2,3-c]pyridin-1(2H)-yl)methanone]		> 100	
COc1ccc2[nH]nc(C(=O)N3C4CC5CCN(C4)CC53)c2c1 (stereo not drawn) [Example 10, (5-methoxy-1H-indazol-3-yl)(hexahydro-2,6-methanopyrrolo[2,3-c]pyridin-1(2H)-yl)methanone]		> 100	
O=C(c1n[nH]c2cc(Cl)ccc12)N1[C@H]2C[C@@H]3CC[N@](C2)C[C@@H]31 [Example 17, (6-chloro-1H-indazol-3-yl)((2S,3aS,6R,7aR)-hexahydro-2,6-methanopyrrolo[2,3-c]pyridin-1(2H)-yl)methanone]			EC50 (Table 2): 0.03 µM
O=C(c1n[nH]c2ncccc12)N1[C@@H]2C[C@H]3CC[N@@](C2)C[C@H]31 [Example 31, ((2R,3aR,6S,7aS)-hexahydro-2,6-methanopyrrolo[2,3-c]pyridin-1(2H)-yl)(1H-pyrazolo[3,4-b]pyridin-3-yl)methanone]	9.2		

Continued, in another order:

EC50 (Table 3) [µM]	EC50 (Table 1) [µM]	SMILES	further results
0.19		Cc1ccc2c(C(=O)N3[C@@H]4C[C@H]5CC[N@@](C4)C[C@H]53)n[nH]c2c1 [Example 30, (6-methyl-1H-indazol-3-yl)((2R,3aR,6S,7aS)-hexahydro-2,6-methanopyrrolo[2,3-c]pyridin-1(2H)-yl)methanone]	
	0.7	O=C(c1n[nH]c2ccc(Br)cc12)N1C2CC3CCN(C2)CC31 (stereo not drawn) [Example 3, (5-bromo-1H-indazol-3-yl)(hexahydro-2,6-methanopyrrolo[2,3-c]pyridin-1(2H)-yl)methanone]	
0.15		O=C(c1n[nH]c2ccccc12)N1[C@@H]2C[C@H]3CC[N@@](C2)C[C@H]31 [Example 33, ((2R,3aR,6S,7aS)-hexahydro-2,6-methanopyrrolo[2,3-c]pyridin-1(2H)-yl)(1H-indazol-3-yl)methanone]	
	0.057	O=C(c1n[nH]c2cc(Cl)ccc12)N1C2CC3CCN(C2)CC31 (stereo not drawn) [Example 7, (6-chloro-1H-indazol-3-yl)(hexahydro-2,6-methanopyrrolo[2,3-c]pyridin-1(2H)-yl)methanone]	
	0.26	COc1ccc2c(C(=O)N3C4CC5CCN(C4)CC53)n[nH]c2c1 (stereo not drawn) [Example 9, (6-methoxy-1H-indazol-3-yl)(hexahydro-2,6-methanopyrrolo[2,3-c]pyridin-1(2H)-yl)methanone]	
0.43		O=C(c1n[nH]c2cc(F)ccc12)N1[C@@H]2C[C@H]3CC[N@@](C2)C[C@H]31 [Example 26, (6-fluoro-1H-indazol-3-yl)((2R,3aR,6S,7aS)-hexahydro-2,6-methanopyrrolo[2,3-c]pyridin-1(2H)-yl)methanone]	
	0.073	O=C(c1n[nH]c2ccccc12)N1C2CC3CCN(C2)CC31 (stereo not drawn) [Example 1, (hexahydro-2,6-methanopyrrolo[2,3-c]pyridin-1(2H)-yl)(1H-indazol-3-yl)methanone]	
36		O=C(c1n[nH]c2c(Cl)cccc12)N1[C@@H]2C[C@H]3CC[N@@](C2)C[C@H]31 [Example 28, (7-chloro-1H-indazol-3-yl)((2R,3aR,6S,7aS)-hexahydro-2,6-methanopyrrolo[2,3-c]pyridin-1(2H)-yl)methanone]	
	0.59	O=C(c1n[nH]c2ccc(Cl)cc12)N1C2CC3CCN(C2)CC31 (stereo not drawn) [Example 2, (5-chloro-1H-indazol-3-yl)(hexahydro-2,6-methanopyrrolo[2,3-c]pyridin-1(2H)-yl)methanone]	
